# Data published in patent US20250074911A1, “MACROCYCLIC BTK INHIBITORS” (Crossfire Oncology Holding B.V., priority 2021, published 2025).
# Where “and” joins values, the source holds several entries; their conditions need not be identical. Identical values can stand only once.
# What was measured:
# [1] = biological target: full-length wt-BTK enzyme (Homo sapiens (Human), UniProt Q06187); assay: Biochemical kinase assay wt-BTK (IMAP)
# How it was run: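 IMAP fluorescence polarization assay: 1.2 nM enzyme pre-incubated 1 h with compound at room temperature, then 50 nM fluorescein-labeled MBP-derived peptide and 4 μM ATP added. Reaction ran 2 h at room temperature in the dark before quenching with IMAP binding solution.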
# [2] = biological target: full-length BTK C481S enzyme (Homo sapiens (Human), UniProt Q06187, C481S); assay: Biochemical kinase assay BTK C481S (IMAP)
# Chain of full-length BTK C481S enzyme (Q06187 whole entry C481S): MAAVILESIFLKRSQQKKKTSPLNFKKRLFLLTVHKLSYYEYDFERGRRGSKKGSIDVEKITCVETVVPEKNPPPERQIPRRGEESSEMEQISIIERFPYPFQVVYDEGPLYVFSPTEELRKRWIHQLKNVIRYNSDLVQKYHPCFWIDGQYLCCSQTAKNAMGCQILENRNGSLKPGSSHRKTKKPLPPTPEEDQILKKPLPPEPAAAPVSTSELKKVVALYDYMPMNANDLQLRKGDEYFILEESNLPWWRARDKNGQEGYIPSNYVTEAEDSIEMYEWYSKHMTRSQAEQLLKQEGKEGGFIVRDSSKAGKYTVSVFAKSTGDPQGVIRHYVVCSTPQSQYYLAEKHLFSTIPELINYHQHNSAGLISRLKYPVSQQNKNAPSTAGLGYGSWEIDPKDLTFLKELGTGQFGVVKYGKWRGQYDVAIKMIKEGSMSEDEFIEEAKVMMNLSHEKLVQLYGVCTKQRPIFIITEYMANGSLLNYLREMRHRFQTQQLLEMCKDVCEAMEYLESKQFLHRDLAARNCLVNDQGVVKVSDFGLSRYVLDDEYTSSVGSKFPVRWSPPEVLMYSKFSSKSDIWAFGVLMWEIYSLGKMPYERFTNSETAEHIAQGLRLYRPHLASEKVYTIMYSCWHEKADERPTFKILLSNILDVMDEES
# How it was run: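 Full-length BTK C481S (1.2 nM) was pre-incubated with compound for 1 h at room temperature in the dark, then reacted with fluorescein-labelled MBP-derived peptide (50 nM) and ATP (7 μM) for 2 h. Reactions were quenched with IMAP binding solution, and IC50 values were derived from fluorescence polarization.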
# [3] = tested on: wt-REC-1 mantle cell lymphoma cells; assay: Cell proliferation assay wt-REC-1 (ATPlite, 72 hours); format: cell-based; conditions: 72 h; read-out: IC50 wt-REC-1
# How it was run: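 Luminescent viability read over 72 h, start-of-incubation signal recorded separately to separate growth from cell death. Percentage growth referenced to compound-free 0.3% DMSO wells; IC50 from 4-parameter logistic fit.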
# [4] = tested on: REC-1 T474I cell lines; assay: Cell proliferation assay REC-1 BTK T474I knock-in cells (ATPlite, 72 hours); format: cell-based; conditions: Homo sapiens, Rec1; 72 hours; read-out: IC50 REC-1 T474I
# How it was run: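 REC-1 cells carrying CRISPR knock-in mutant BTK, single-cell cloned and sequence-confirmed, were exposed to compound for 72 h and read by ATPlite luminescence. Percentage growth was calculated against the signal at the start of incubation and against untreated 0.3% DMSO wells as maximum growth.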
# [5] = biological target: wt-BTK (Homo sapiens (Human), UniProt Q06187); assay: Binding kinetics measurements (Surface Plasmon Resonance) on wt-BTK; conditions: for Kd: binding affinity by Surface Plasmon Resonance (SPR); for Tau (h) wt-BTK (Act): target residence time, SPR
# Chain of wt-BTK (Q06187 whole entry): as the sequence (Q06187 whole entry C481S) above, with S481C counted along it
# How it was run: (§1)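 Constants (ka, kd, KD) are geometric means of duplicates from single cycle SPR at 22° C, with compound at 3.16-316 nM in five steps. Residence time for induced-fit binders derived per a two-state model.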
# [6] = biological target: BTK C481S (Homo sapiens (Human), UniProt Q06187, C481S); assay: Binding kinetics measurements (Surface Plasmon Resonance) on BTK C481S; conditions: for Kd: binding affinity by Surface Plasmon Resonance (SPR); for Tau (h) BTK C418S (Act): target residence time for BTK C481S, SPR
# Chain of BTK C481S (Q06187 whole entry C481S): as the sequence (Q06187 whole entry C481S) above
# How it was run: as §1
# [7] = biological target: BTK T316A (Homo sapiens (Human), UniProt Q06187, T316A); assay: Binding kinetics measurements (Surface Plasmon Resonance) on BTK T316A; conditions: for Kd: binding affinity by Surface Plasmon Resonance (SPR); for Tau (h) BTK T316A (Act): target residence time, SPR
# Chain of BTK T316A (Q06187 whole entry T316A): as the sequence (Q06187 whole entry C481S) above, with T316A, S481C counted along it
# How it was run: as §1
# [8] = biological target: BTK T474I (Homo sapiens (Human), UniProt Q06187, T474I); assay: Binding kinetics measurements (Surface Plasmon Resonance) on BTK T474I; conditions: for Kd: binding affinity by Surface Plasmon Resonance (SPR); for Tau (h) BTK T474I (Act): target residence time, SPR
# Chain of BTK T474I (Q06187 whole entry T474I): as the sequence (Q06187 whole entry C481S) above, with T474I, S481C counted along it
# How it was run: as §1
# [9] = biological target: BTK T474S (Homo sapiens (Human), UniProt Q06187, T474S); assay: Binding kinetics measurements (Surface Plasmon Resonance) on BTK T474S; conditions: for residence time: SPR binding kinetics, BTK T474S, read-out: Tau (h) BTK T474S (Act), target residence time (converted); for Kd: binding affinity by Surface Plasmon Resonance (SPR)
# Chain of BTK T474S (Q06187 whole entry T474S): as the sequence (Q06187 whole entry C481S) above, with T474S, S481C counted along it
# How it was run: as §1
# [10] = tested on: wt-TMD8 diffuse large B-cell lymphoma cells; assay: Cell proliferation assay wt-TMD8 (ATPlite, 120 hours); format: cell-based; conditions: B-cell; wt-TMD8 cells, 120 hours, ATPlite; read-out: IC50 wt-TMD8
# How it was run: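 wt-TMD8 DLBCL cells, 1600 per well in RPMI-1640 with 10% FBS, rested ≥5 h then exposed to compound for 120 h at 37° C, 5% CO2. Viability read by ATPlite luminescence; percentage growth calculated relative to start-of-incubation signal and untreated 0.3% DMSO maximum growth.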
# Chain of full-length wt-BTK enzyme (Q06187 whole entry): as the sequence (Q06187 whole entry C481S) above, with S481C counted along it
Compound,IC50 [1],IC50 [2],IC50 [3],IC50 [4],Kd [5],Tau (h) wt-BTK (Act) [5],Kd [6],Tau (h) BTK C418S (Act) [6],Kd [7],Tau (h) BTK T316A (Act) [7],Kd [8],residence time [9],Kd [9],IC50 [10],Tau (h) BTK T474I (Act) [8]
Nc1ncc2c3c1c(-c1ccc(C(=O)Nc4cc(C(F)(F)F)ccn4)cc1F)nn3[C@@H]1CCC[C@H](C1)NC(=O)CNC/C=C/2 [Example 8],< 5 nM,< 5 nM,100 to 1000 nM,500 to 10000 nM,< 5 nM,2.25 h,< 5 nM,3.30 h,< 5 nM,1.30 h,10 to 50 nM and < 5 nM,3.17 h,< 3 nM,< 100 nM,
Nc1ncc2c3c1c(-c1ccc(C(=O)Nc4cc(C(F)(F)F)ccn4)cc1)nn3[C@@H]1CCC[C@H](C1)NC(=O)[C@@H]1CCN(C/C=C/2)C1 [Example 147],< 5 nM,< 5 nM,< 100 nM,< 100 nM,< 5 nM,5.28 h,< 5 nM,1.73 h,< 5 nM,10.42 h,< 2 nM,6.36 h,< 3 nM,< 100 nM,
Nc1ncc2c3c1c(-c1ccc(C(=O)Nc4cc(C(F)(F)F)ccn4)cc1)nn3[C@@H]1CCC[C@H](C1)NC(=O)CCC/C=C/2 [Example 47],< 5 nM,< 5 nM,100 to 1000 nM,100 to 500 nM,< 5 nM,2.66 h,< 5 nM,4.68 h,< 5 nM,1.91 h,< 2 nM,2.76 h,< 3 nM,< 100 nM,0.86 h
Nc1ncc2c3c1c(-c1ccc(C(=O)Nc4ccccn4)cc1)nn3[C@@H]1CCC[C@H](C1)NC(=O)CCCC/C=C\C2 [Example 100b],< 5 nM,< 5 nM,100 to 1000 nM,500 to 10000 nM,< 5 nM,,< 5 nM,0.98 h,< 5 nM,,10 to 50 nM and < 5 nM,,< 5 nM,< 100 nM,
COc1ccc(F)cc1C(=O)NCc1ccc(-c2nn3c4c(cnc(N)c24)/C=C/CCCCC(=O)N[C@@H]2CCC[C@@H]3C2)cc1 [Example 51],< 5 nM,< 5 nM,100 to 1000 nM,100 to 500 nM,< 5 nM,1.82 h,< 5 nM,1.92 h,< 5 nM,,10 to 50 nM and < 5 nM,2.09 h,< 3 nM,< 100 nM,
Nc1ncc2c3c1c(-c1ccc(C(=O)Nc4cc(C(F)(F)F)ccn4)cc1F)nn3[C@@H]1CCC[C@H](C1)NC(=O)CCC/C=C/2 [Example 7],< 5 nM,< 5 nM,< 100 nM,500 to 10000 nM,< 5 nM,2.57 h,< 5 nM,4.50 h,< 5 nM,2.03 h,< 2 nM,4.98 h,< 3 nM,< 100 nM,
Nc1ncc2n3c(nc(-c4ccc(C(=O)Nc5cc(C(F)(F)F)ccn5)cc4)c13)[C@@H]1CCC[C@H](C1)NC(=O)CCCCC/C=C/2 [Example 131],< 5 nM,< 5 nM,< 100 nM,< 100 nM,< 5 nM,3.70 h,< 5 nM,5.25 h,< 5 nM,3.44 h,< 2 nM,9.61 h,< 3 nM,< 100 nM,2.37 h
Nc1ncc2c3c1c(-c1ccc(C(=O)Nc4cc(C(F)(F)F)ccn4)cc1)nn3[C@@H]1CCC[C@H](C1)NC(=O)COCC/C=C/2 [Example 6],< 5 nM,< 5 nM,< 100 nM,100 to 500 nM,< 5 nM,6.80 h,< 5 nM,2.91 h,< 5 nM,2.28 h,< 2 nM,4.41 h,< 3 nM,< 100 nM,
Nc1ncc2c3c1c(-c1ccc(C(=O)Nc4ccccn4)cc1)nn3C1CCC[C@H](C1)NC(=O)CCCCC/C=C/2 [Example 24],< 5 nM,< 5 nM,< 100 nM,< 100 nM,,4.78 h,,10.68 h,,2.66 h,,3.19 h,,< 100 nM,1.26 h
COc1ccc(F)cc1C(=O)NCc1ccc(-c2nn3c4c(cnc(N)c24)/C=C/CCCC(=O)N[C@@H]2CCC[C@@H]3C2)cc1 [Example 50],< 5 nM,< 5 nM,100 to 1000 nM,500 to 10000 nM,< 5 nM,,< 5 nM,,< 5 nM,,10 to 50 nM and < 5 nM,,< 3 nM,< 100 nM,
